According to patent publication US20230312550A1, “N-(2-(4-CYANOTHIAZOLIDIN-3-YL)-2-OXOETHYL)-QUINOLINE-4-CARBOXAMIDES” (AstraZeneca AB, priority 2020, published 2023):
In brackets after ≈: the same amount, converted by molar mass.

How the values were obtained:
[1] = Metabolic stability in rat hepatocytes (rHep); details: n = 1 or geometric mean of n = 2-3
[2] = target: human Fibroblast activation protein alpha (hFAP) (Homo sapiens (Human), UniProt Q12884); experiment: hFAP inhibition assay (tight binders); type: biochemical; details: Ala-Pro-AMC 20 μM, n = 1 or geometric mean n = 2-6; note: hFAP 2.4 pM
Experimental: The plates were read on a PHERAstar® reader with excitation 340 nm and emission 460 nm. Data were analyzed in Genedata Screener®. IC50 values were determined by plotting % inhibition versus log compound concentration and using a one site dose response model.

[3] = target: Prolyl endopeptidase, Prolyl Oligopeptidase (hPREP) (Homo sapiens (Human), UniProt P48147); experiment: hPrep inhibition assay; type: biochemical; details: hPREP 0.6 nM, Z-Gly-Pro-amino-methylcoumarin 50 μM; read-out: PREP IC50
In short: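 Fluorogenic read-out (340 nm excitation, 460 nm emission) after 20 min at rt, using 50 μM final Z-Gly-Pro-aminomethylcoumarin and 0.6 nM final enzyme, following 15 min compound preincubation. Buffer pH 7.5 with glutathione and Triton X-100. IC50 via one-site model on % inhibition vs log concentration.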

[4] = target: hFAP (M39-A757) (Homo sapiens (Human), UniProt Q12884); experiment: hFAP binding assay (surface plasmon resonance); details: SPR, 20° C.; for hFAP Binding assay k(off) / hFAP Binding assay k(on): single cycle kinetics; for Kd: n = 1 or geometric mean n = 2-4
[5] = Kinetic solubility; details: kinetic from dmso stock, Solubility, kinetic solubility; n = 1 or average of n = 2-3
Experimental: Kinetic solubility was measured as described in Comput Aided Mol Des 2015, 29, 795.

[6] = target: FAP (Homo sapiens (Human), UniProt Q12884); experiment: hFAP inhibition assay; type: biochemical; details: Ala-Pro-AMC 20 μM, n = 1 or geometric mean n = 2-3
In short: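 Compounds (10-point, 3-fold dilutions from 50 μM top) were preincubated 15 min at rt in the dark with 0.48 nM hFAP in pH 7.4 Tris/NaCl/Chaps buffer. Reaction was started with substrate (40 μM solution) and ran 30 min at rt. Read by fluorescence (340/460 nm); IC50 from one-site fit.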

[7] = Metabolic stability in human liver microsomes (HLM); details: human, HLM CLint, n = 1 or average of n = 2-3
Experimental: Metabolic stability in HLM was measured as described in J Comput Aided Mol Des 2015, 29, 795.

Chain of FAP (Q12884 38-760): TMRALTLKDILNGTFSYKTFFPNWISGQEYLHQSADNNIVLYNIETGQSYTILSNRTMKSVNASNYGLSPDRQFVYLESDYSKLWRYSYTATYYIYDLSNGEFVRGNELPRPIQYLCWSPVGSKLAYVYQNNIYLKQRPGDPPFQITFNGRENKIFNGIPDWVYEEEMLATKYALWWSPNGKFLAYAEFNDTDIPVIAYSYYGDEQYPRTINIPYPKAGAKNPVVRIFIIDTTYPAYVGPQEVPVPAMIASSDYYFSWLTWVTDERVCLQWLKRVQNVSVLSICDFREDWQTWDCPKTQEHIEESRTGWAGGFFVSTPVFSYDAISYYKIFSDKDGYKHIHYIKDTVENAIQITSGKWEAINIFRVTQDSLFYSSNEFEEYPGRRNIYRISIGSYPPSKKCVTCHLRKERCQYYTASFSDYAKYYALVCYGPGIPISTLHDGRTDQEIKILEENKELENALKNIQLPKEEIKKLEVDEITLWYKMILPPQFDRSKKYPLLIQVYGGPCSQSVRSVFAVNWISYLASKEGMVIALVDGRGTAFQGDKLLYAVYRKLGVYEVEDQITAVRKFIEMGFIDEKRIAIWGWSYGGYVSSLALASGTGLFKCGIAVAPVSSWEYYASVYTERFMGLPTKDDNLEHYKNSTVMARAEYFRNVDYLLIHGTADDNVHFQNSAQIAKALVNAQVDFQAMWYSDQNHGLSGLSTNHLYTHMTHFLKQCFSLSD
Chain of human Fibroblast activation protein alpha (hFAP) (Q12884 38-760): as above
Chain of Prolyl endopeptidase, Prolyl Oligopeptidase (hPREP) (P48147 whole entry): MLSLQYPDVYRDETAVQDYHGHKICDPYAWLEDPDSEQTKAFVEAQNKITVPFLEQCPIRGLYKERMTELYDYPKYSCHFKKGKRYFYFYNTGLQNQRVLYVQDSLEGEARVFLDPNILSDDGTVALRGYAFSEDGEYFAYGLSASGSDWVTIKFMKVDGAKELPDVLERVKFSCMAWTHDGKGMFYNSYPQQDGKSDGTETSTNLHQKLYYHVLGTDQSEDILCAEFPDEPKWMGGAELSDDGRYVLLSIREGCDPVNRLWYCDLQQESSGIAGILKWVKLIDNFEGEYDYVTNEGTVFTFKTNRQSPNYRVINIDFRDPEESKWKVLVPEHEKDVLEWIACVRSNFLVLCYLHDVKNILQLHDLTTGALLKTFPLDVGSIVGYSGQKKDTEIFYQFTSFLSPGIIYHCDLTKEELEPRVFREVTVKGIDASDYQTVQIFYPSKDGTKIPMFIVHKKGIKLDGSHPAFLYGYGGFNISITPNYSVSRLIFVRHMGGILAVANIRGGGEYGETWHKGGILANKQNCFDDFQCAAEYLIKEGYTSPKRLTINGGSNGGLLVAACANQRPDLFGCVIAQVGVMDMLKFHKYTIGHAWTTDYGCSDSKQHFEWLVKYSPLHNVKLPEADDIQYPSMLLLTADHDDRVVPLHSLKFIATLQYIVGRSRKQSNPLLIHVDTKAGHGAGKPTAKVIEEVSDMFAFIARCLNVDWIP
Chain of hFAP (M39-A757) (Q12884 39-757): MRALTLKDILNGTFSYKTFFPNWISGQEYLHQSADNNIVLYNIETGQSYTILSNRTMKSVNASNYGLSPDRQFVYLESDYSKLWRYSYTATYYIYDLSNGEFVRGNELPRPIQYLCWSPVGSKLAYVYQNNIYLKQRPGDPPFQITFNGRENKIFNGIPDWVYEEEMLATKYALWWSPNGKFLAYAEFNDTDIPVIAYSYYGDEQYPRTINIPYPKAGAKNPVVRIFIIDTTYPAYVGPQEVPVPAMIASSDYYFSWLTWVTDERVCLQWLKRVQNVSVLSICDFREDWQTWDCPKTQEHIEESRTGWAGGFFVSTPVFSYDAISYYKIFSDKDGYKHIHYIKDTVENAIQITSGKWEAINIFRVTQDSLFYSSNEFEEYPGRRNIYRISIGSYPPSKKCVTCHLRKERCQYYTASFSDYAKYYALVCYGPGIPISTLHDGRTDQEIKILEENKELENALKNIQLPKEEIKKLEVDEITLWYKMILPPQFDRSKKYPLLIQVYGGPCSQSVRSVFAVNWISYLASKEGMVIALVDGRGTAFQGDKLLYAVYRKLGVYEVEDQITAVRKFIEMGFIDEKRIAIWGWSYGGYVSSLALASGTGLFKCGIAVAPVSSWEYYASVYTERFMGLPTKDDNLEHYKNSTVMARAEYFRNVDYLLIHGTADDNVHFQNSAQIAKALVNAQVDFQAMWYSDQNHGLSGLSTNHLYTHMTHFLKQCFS

| SMILES | rHep CLint [1] [μL/min/1E6] | IC50 [2] [nM] | IC50 [3] [nM] | hFAP Binding assay k(off) [4] [s⁻¹] | hFAP Binding assay k(on) [4] [M⁻¹ s⁻¹] | Kd [4] [nM] | solubility [5] [µM] | IC50 ([6]; hFAP […]) [nM] | microsomal CLint [7] [µL/min/mg] | IC50 ([6]; hFAP 0.24 nM) [nM] |
| --- | --- | --- | --- | --- | --- | --- | --- | --- | --- | --- |
| CC1(C)CCN1c1ccc2nccc(C(=O)NCC(=O)N3CSC[C@H]3C#N)c2c1 [Example 20, (R)—N-(2-(4-Cyanothiazolidin-3-yl)-2-oxoethyl)-6-(2,2-dimethylazetidin-1-yl)quinoline-4-carboxamide] | 120 | 0.43 | 430 | 0.00012 | 4200000 | 0.03 | 900 (≈ 369 µg/mL) | 0.74 | 290 |  |
| N#C[C@@H]1CSCN1C(=O)CNC(=O)c1ccnc2ccc(N3CCCC[C@H]3CF)cc12 [Example 45, N-(2-((R)-4-Cyanothiazolidin-3-yl)-2-oxoethyl)-6-((S)-2-(fluoromethyl)-piperidin-1-yl)quinoline-4-carboxamide] | 160 | 0.14 | 190 | 0.00018 | 5400000 | 0.048 | 340 (≈ 150 µg/mL) | 0.2 | 260 |  |
| C[C@@H]1CCN(c2ccc3nccc(C(=O)NCC(=O)N4CSC[C@H]4C#N)c3c2)CCO1 [Example 61, N-(2-((R)-4-Cyanothiazolidin-3-yl)-2-oxoethyl)-6-((R)-7-methyl-1,4-oxazepan-4-yl)quinoline-4-carboxamide] | 26 | 0.06 | 390 |  |  | 0.062 | 670 (≈ 294 µg/mL) | 0.21 | 47 |  |
| N#C[C@@H]1CSCN1C(=O)CNC(=O)c1ccnc2ccc(-c3cncnc3)cc12 [Example 127, (R)—N-(2-(4-Cyanothiazolidin-3-yl)-2-oxoethyl)-6-(pyrimidin-5-yl)-quinoline-4-carboxamide] | 8.2 | 0.16 | 130 | 0.0020 | 6000000 | 0.34 | 120 (≈ 48.5 µg/mL) | 0.38 | 11 |  |
| N#C[C@@H]1CSCN1C(=O)CNC(=O)c1ccnc2ccc(-c3ccnn3[C@H]3CCCCO3)cc12 (mixture of isomers) [Example 176, N-(2-((R)-4-Cyanothiazolidin-3-yl)-2-oxoethyl)-6-(1-((RS)-tetrahydro-2H-pyran-2-yl)-1H-pyrazol-5-yl)quinoline-4-carboxamide] | 15 | 0.087 | 560 | 0.00022 | 120000 | 1.9 | 800 |  | 92 | 0.54 |
| N#C[C@@H]1CSCN1C(=O)CNC(=O)c1ccnc2ccc(N3CCCC(F)(F)C3)cc12 [Example 36, (R)—N-(2-(4-Cyanothiazolidin-3-yl)-2-oxoethyl)-6-(3,3-difluoropiperidin-1-yl)quinoline-4-carboxamide] | 19 | 0.084 | 400 | 0.000090 | 3000000 | 0.053 | < 98 | 0.24 | 48 |  |
| COC[C@@H]1CCCN1c1ccc2nccc(C(=O)NCC(=O)N3CSC[C@H]3C#N)c2c1 [Example 212, N-(2-((R)-4-Cyanothiazolidin-3-yl)-2-oxoethyl)-6-((S)-2-(methoxymethyl)-pyrrolidin-1-yl)quinoline-4-carboxamide] | 57 | 0.26 | 330 | 0.00034 | 3300000 | 0.1 | 16 (≈ 7.03 µg/mL) | 0.29 | 110 |  |
| N#C[C@@H]1CSCN1C(=O)CNC(=O)c1ccnc2ccc(N3C[C@H](F)[C@@H](F)C3)cc12 [Example 213, N-(2-((R)-4-Cyanothiazolidin-3-yl)-2-oxoethyl)-6-((3S,4S)-3,4-difluoro-pyrrolidin-1-yl)quinoline-4-carboxamide] | 19 | 0.039 | 470 | 0.00017 | 4400000 | 0.039 | 100 (≈ 43.1 µg/mL) | 0.18 | 31 |  |
| C[C@@H]1CCCN1c1ccc2nccc(C(=O)NCC(=O)N3CSC[C@H]3C#N)c2c1 [Example 211, N-(2-((R)-4-cyanothiazolidin-3-yl)-2-oxoethyl)-6-((R)-2-methylpyrrolidin-1-yl)quinoline-4-carboxamide] | 190 | 0.1 | 110 | 0.0002 | 5900000 | 0.049 | 110 (≈ 45 µg/mL) | 0.2 | 200 |  |
| N#C[C@@H]1CSCN1C(=O)CNC(=O)c1ccnc2ccc(N3CC(Cc4ccc(Cl)cc4)C3)cc12 [Example 187, (R)-6-(3-(4-Chlorobenzyl)azetidin-1-yl)-N-(2-(4-cyanothiazolidin-3-yl)-2-oxoethyl)quinoline-4-carboxamide] | 140 | 0.072 | 38 | 0.00022 | 3100000 | 0.07 | 19 (≈ 9.61 µg/mL) | 0.098 | 190 |  |
| C[C@H]1CCN(c2ccc3nccc(C(=O)NCC(=O)N4CSC[C@H]4C#N)c3c2)C1 [Example 54, N-(2-((R)-4-Cyanothiazolidin-3-yl)-2-oxoethyl)-6-((S)-3-methylpyrrolidin-1-yl)quinoline-4-carboxamide] | 49 | 0.062 | 300 | 0.00023 | 6200000 | 0.045 | 13 (≈ 5.32 µg/mL) | 0.22 | 57 |  |
| CC[C@H]1COCCN1c1ccc2nccc(C(=O)NCC(=O)N3CSC[C@H]3C#N)c2c1 [Example 106, N-(2-((R)-4-Cyanothiazolidin-3-yl)-2-oxoethyl)-6-((S)-3-ethyl-morpholino)quinoline-4-carboxamide] | 21 | 0.08 | 520 | 0.00014 | 1800000 | 0.075 | 700 (≈ 308 µg/mL) | 0.23 | 47 |  |
